From US9301999B2 (priority 2009, dated 2016)
“And” between values parts separate entries of the source, which are not always exact repeats. Equal entries are not always repeated. “Also recorded” adds a separate entry of the source. Where no end group is shown, it is not given here.

What follows are substances tested on anti-rPA serum IgG. Settings: mouse, in vivo.
Design: species or system C3H/HeN female mice

| Substance | serum anti-PA IgG geometric means titers (GMT), adjuvant activity |
| --- | --- |
| INLKALAALAKALL [Mastoparan 7, INLKALAALAKALL—NH2, reference compound] | significantly increased |
| INLKAKAALAKKLL-OH [Mastoparan 17] | did not provide detectable adjuvant activity |
| cholera toxin [CT, reference compound] | did not significantly augment |

Each substance was assayed on anti-PA IgG. Settings: mouse, in vivo.
Design: species or system Female C3H/HeN mice

| Substance | adjuvant activity as determined by serum anti-PA IgG endpoint titers |
| --- | --- |
| INLKALAALAKKIL [Mastoparan-OH] | provided adjuvant activity |
| INLKAKAALAKKLL-OH [Mastoparan 17] | did not provide adjuvant activity |
| KLKLLLLLKLK-OH | did not provide adjuvant activity |
| KLKLLLLLKLK-NH2 | did not provide adjuvant activity |

What follows are substances tested on MC/9 mast cells. Settings: not given.
Format: cell-based, murine
Design: MCD10: concentration of peptide necessary to induce degranulation of 10% of mast cells: unit not given here

| Substance | % Mast Cell Degranulation | MCD10: concentration of peptide necessary to induce degranulation of 10% of mast cells | % MC/9 Degranulation | mast cell degranulation (β-hexosaminidase released into the culture medium) |
| --- | --- | --- | --- | --- |
| I N L K A L A A L A K I I L [MP-12I-NH2] | 81.66% and 70.13% and 49.9% | – | – | – |
| INLKALAALAKWIL [MP-12W, I N L K A L A A L A K W I L] | – | 1.47 | – | – |
| I N L K A W A A L A K K I L (INLKAWAALAKKIL) [MP-6W] | – | 24.99 | – | – |
| I N L K A L A A L A K S I L (INLKALAALAKSIL) [MP-12S] | – | 22.50 | – | – |
| I N L K A L A A L A K F I L [MP-12F-Ac] | 2.75% | – | – | – |
| I N L K A L A A L A K A L L [MP7-Ac] | 0.31% | – | – | – |
| I N L K A L A A L A K W I L [MP-12W-NH2] | 79.87% and 85.74% and 80.05% | – | – | – |
| I N L K A L A A L A K I I L [MP-12I-Ac-NH2] | 87.97% and 67.63% and 46.09% | – | – | – |
| I N L K A L A A L A K K W L (INLKALAALAKKWL) [MP-13W] | – | 22.76 | – | – |
| I N L K A L A A L A K W I L [MP-12W-OH] | 23.83% | – | – | – |
| I N L K A L A A L A K G I L (INLKALAALAKGIL) [MP-12G] | – | 68.76 | – | – |
| I N L K A L A A L A K K L L (INLKALAALAKKLL) [MP-13L] | – | 22.46 | – | – |
| INLKALAALAKALL [Mastoparan 7, INLKALAALAKALL—NH2, reference compound] | 72.33% and 54.35% and 39.12% | 6.31 | 50.25% and 80.20% | induced mast cell degranulation |
| I N L K A L A A L A K F I L [MP-12F-OH] | 38.07% | – | – | – |
| INLKALAALAKYIL [MP-12Y, I N L K A L A A L A K Y I L] | – | 4.09 | – | – |
| INLKAKAALAKKLL-OH [Mastoparan 17] | – | – | 0% | – |
| I N L K A L A A L A K K M L (INLKALAALAKKML) [MP-13M] | – | 64.54 | – | – |
| I N L K A L A A L A K N I L (INLKALAALAKNIL) [MP-12N] | – | 31.86 | – | – |
| I N L K A L A A L A K I I L [MP-12I-OH] | 0% | – | – | – |
| I N L K A L A A L A K W I L [MP-12W-Ac] | 38.76% | – | – | – |
| INLKALAALAKFIL [MP-12F, I N L K A L A A L A K F I L] | – | 4.39 | – | – |
| WRWRWWWWWWRRWW-NH2 [Duke Mast F] | – | – | 27.80% and 40.07% | – |
| I N L K A L A A L A K K C L (INLKALAALAKKCL) [MP-13C] | – | 17.27 | – | – |
| I N L K A L A A L A K L I L [MP-12L-NH2] | 83.36% and 67.37% and 51.29% | – | – | – |
| I N L K A L A A L A K A L L [MP7-OH] | 2.87% | – | – | – |

| Substance | % Mast Cell Degranulation | MCD10: concentration of peptide necessary to induce degranulation of 10% of mast cells | % MC/9 Degranulation | mast cell degranulation (β-hexosaminidase released into the culture medium) |
| --- | --- | --- | --- | --- |
| INLKALAALAKVIL [MP-12V, I N L K A L A A L A K V I L] | – | 14.87 | – | – |
| INLKALAALAKIIL [MP-12I, I N L K A L A A L A K I I L] | – | 2.32 | – | – |
| I N L K A I A A L A K K I L (INLKAIAALAKKIL) [MP-6I] | – | 61.14 | – | – |
| I N L K A L A A L A K R I L (INLKALAALAKRIL) [MP-12R] | – | 23.29 | – | – |
| I N L K A L A A L A K L I L [MP-12L-OH] | 21.36% | – | – | – |
| INLKALAALAKCIL [MP-12C, I N L K A L A A L A K C I L] | – | 5.33 | – | – |
| INLKALAALAKLIL [MP-12L, I N L K A L A A L A K L I L] | – | 2.30 | – | – |
| I N L K A L A A L A K I I L [MP-12I-Ac] | 0% | – | – | – |
| WQWRWWWWWWRRWW-NH2 [Duke Mast C] | – | – | 47.90% | – |
| I N L K A L A A L A K H I L (INLKALAALAKHIL) [MP-12H] | – | 23.86 | – | – |
| I N L K A L A A L A K K F L (INLKALAALAKKFL) [MP-13F] | – | 24.37 | – | – |
| I N L K A L A A L A K F I L [MP-12F-NH2] | 95.24% and 87.57% and 70.01% | – | – | – |
| I N L K A L A A L A K E I L (INLKALAALAKEIL) [MP-12E] | – | 40.32 | – | – |
| INLKALAALAKALLINLKALAALAKALL-NH2 [MP7-2X] | – | – | 33.60% and 47.80% | – |
| INLKALAALAKALLSGGRGGINLKALAALAKALL-NH2 [MP7-2XA] | – | – | 50.20% and 78.40% | – |
| WQWRWWWWWWRWWW-NH2 [Duke Mast I] | – | – | 30.50% | – |
| INLKALAALAKAIL [MP-12A, I N L K A L A A L A K A I L] | – | 8.88 | – | – |
| INLKALAALAKALLGGGINLKALAALAKALL-NH2 [MP7-2XB] | – | – | 40.49% and 56.90% | – |
| INLKALAALAKMIL [MP-12M, I N L K A L A A L A K M I L] | – | 2.96 | – | – |
| I N L K A L A A L A K L I L [MP-12L-Ac-NH2] | 80.35% and 76.49% and 58.57% | – | – | – |
| I N L K A L A A L A K A L L [MP7-Ac-NH2] | 54.46% and 47.52% and 29.89% | – | – | – |
| I N L K A L A A L A K Q I L (INLKALAALAKQIL) [MP-12Q] | – | 18.73 | – | – |
| I N L K A L A A L A K L I L [MP-12L-Ac] | 1.07% | – | – | – |
| I N L K A F A A L A K K I L (INLKAFAALAKKIL) [MP-6F] | – | 58.40 | – | – |
| I N L K A L A A L A K F I L [MP-12F-Ac-NH2] | 87.65% and 83.36% and 67.41% | – | – | – |

Same assay, conditions: read-out: MCD50: concentration of peptide necessary to induce degranulation of 50% of mast cells

| Substance | EC50 [µM] |
| --- | --- |
| INLKALAALAKWIL [MP-12W, I N L K A L A A L A K W I L] | 4.71 |
| INLKALAALAKALL [Mastoparan 7, INLKALAALAKALL—NH2, reference compound] | 18.1 |
| INLKALAALAKYIL [MP-12Y, I N L K A L A A L A K Y I L] | 11.1 |
| INLKALAALAKFIL [MP-12F, I N L K A L A A L A K F I L] | 9.22 |
| INLKALAALAKVIL [MP-12V, I N L K A L A A L A K V I L] | 41.2 |
| INLKALAALAKIIL [MP-12I, I N L K A L A A L A K I I L] | 12 |
| INLKALAALAKCIL [MP-12C, I N L K A L A A L A K C I L] | 23.8 |
| INLKALAALAKLIL [MP-12L, I N L K A L A A L A K L I L] | 5.19 |
| INLKALAALAKAIL [MP-12A, I N L K A L A A L A K A I L] | 25.3 |
| INLKALAALAKMIL [MP-12M, I N L K A L A A L A K M I L] | 11.3 |

These substances were tested on anti-WNV IgG. Settings: nasal, days 0, 7 and 21, WNV antigen 1 μg + 0.25 or 1.25 nmoles peptide; ANOVA p<0.05.
Format: in vivo, Female BALB/c mice

| Substance | Anti-WNV IgG titers in sera on day 28, versus antigen alone |
| --- | --- |
| INLKALAALAKWIL [MP-12W, I N L K A L A A L A K W I L] | significantly greater |
| INLKALAALAKALL [Mastoparan 7, INLKALAALAKALL—NH2, reference compound] | significantly greater |
| INLKALAALAKFIL [MP-12F, I N L K A L A A L A K F I L] | significantly greater |
| INLKALAALAKIIL [MP-12I, I N L K A L A A L A K I I L] | significantly greater |
| INLKALAALAKLIL [MP-12L, I N L K A L A A L A K L I L] | significantly greater |

Same assay, conditions: nasal, days 0, 7 and 21, WNV antigen 1 μg + 0.25 or 1.25 nmoles peptide; serum day 28

| Substance | anti-WNV IgG titers, difference versus mice that received MP7 |
| --- | --- |
| INLKALAALAKWIL [MP-12W, I N L K A L A A L A K W I L] | no significant difference |
| INLKALAALAKFIL [MP-12F, I N L K A L A A L A K F I L] | no significant difference |
| INLKALAALAKIIL [MP-12I, I N L K A L A A L A K I I L] | no significant difference |
| INLKALAALAKLIL [MP-12L, I N L K A L A A L A K L I L] | no significant difference |

What follows are substances tested on anti-rPA IgG. Settings: mouse, in vivo.
Design: species or system female C3H/HeN mice

| Substance | serum anti-rPA IgG titer versus mice immunized with rPA alone | serum anti-rPA IgG titers, difference between the -OH and -NH2 forms |
| --- | --- | --- |
| INLKALAALAKKIL [Mastoparan-OH] | not significantly different | – |
| INLKALAALAKALL [Mastoparan 7, INLKALAALAKALL—NH2, reference compound] | – | no significant difference |
| I N L K A L A A L A K A L L [MP7-OH] | – | no significant difference |

Tested on: anti-rPA IgG
Design: species or system female C3H mice
Settings: mouse, in vivo
Remark: another data set of the same source

| Substance | Tukey's Multiple Comparison Test versus CT, Significant? P < 0.05? | Tukey's Multiple Comparison Test versus Duke Mast I NH2, Significant? P < 0.05? | Tukey's Multiple Comparison Test versus rPA, Significant? P < 0.05? | adjuvant activity: serum anti-rPA IgG titers compared to rPA alone | Tukey's Multiple Comparison Test versus Duke Mast F NH2, Significant? P < 0.05? |
| --- | --- | --- | --- | --- | --- |
| WRWRWWWWWWRRWW-NH2 [Duke Mast F] | No | No | Yes | statistically significant adjuvant activity | – |
| WQWRWWWWWWRRWW-NH2 [Duke Mast C] | No | No | Yes | statistically significant adjuvant activity | No |
| WQWRWWWWWWRWWW-NH2 [Duke Mast I] | No | – | Yes | statistically significant adjuvant activity | – |
| cholera toxin [CT, reference compound] | – | – | Yes | – | – |

The substances below were run on anthrax lethal toxin. Settings: mouse, in vivo.
Design: species or system C3H/HeN female mice

| Substance | lethal toxin neutralizing antibody response in serum |
| --- | --- |
| INLKALAALAKALL [Mastoparan 7, INLKALAALAKALL—NH2, reference compound] | neutralized anthrax lethal toxin; also recorded: significantly increased versus all other groups |
| INLKAKAALAKKLL-OH [Mastoparan 17] | did not induce lethal toxin neutralizing responses greater than those detected in mice immunized with rPA alone |
